From US20250147039A1, “Compounds for complexation of rare earth elements and/or s-, p-, d- block metals, their coordination compounds, peptide conjugates, method of their preparation and use thereof” (USTAV ORGANICKE CHEMIE A BIOCHEMIE AV CR V.V.I., priority 2021, published 2025)

Key:
[1] = Formation of 1,5-cz-[Ln(Lig)] from Lig and Ln^III ions (metal dependent click-zip), MES/NaOH buffer pH 5.2, analytical HPLC (Chart 3); assay type: physicochemical
[2] = Formation of 1,5-cz-[M(Lig)] from Lig and M^III ions (metal dependent click-zip) (Charts 4, 5); assay type: physicochemical; details: MOPS/NaOH buffer pH 7.0, TD728, TD827 in 50% i-PrOH; for conversion to 1,5-cz-[M(Lig)], Y^III: TD714 sum of two diastereoisomers
[3] = Formation of 1,5-cz-[M(Lig)] from Lig and M^II ions (metal dependent click-zip) (Charts 6, 7); assay type: physicochemical; details: MOPS/NaOH buffer pH 7.0; for conversion to 1,5-cz-[M(Lig)], Ca^II / conversion to 1,5-cz-[M(Lig)], Cd^II: TD728 in 50% i-PrOH
[4] = Alkali metal dependent formation of 1,5-cz-Lig and 1,4-cz-Lig isomers from Lig at pH 10.2 (Chart 14); assay type: physicochemical; details: Borate/(M^I)2CO3 buffer pH 10.2
[5] = Formation of 1,5-cz-[Ln(Lig)] from Lig and Ln^III ions (metal dependent click-zip), MOPS/NaOH buffer pH 7.0, analytical HPLC (Charts 1, 2); details: MOPS/NaOH buffer pH 7.0
[6] = B: 1 day at 80° C., visible analyte free precipitate

SMILES: [N-]=[N+]=NCc1cc(-c2ccc(C(=O)O)cc2)cc(CN2CCN(CC(=O)O)CCN(Cc3cccc(C#CCN)n3)CCN(CC(=O)O)CC2)n1 [TD750]
- conversion to 1,5-cz-[Ln(Lig)], Gd^III ([1]; after 1 hour at 80° C. (A)): 3%
- conversion to 1,5-cz-[Ln(Lig)], Gd^III ([1]; after 18 hours at 80° C. (B)): 9%
- conversion to 1,5-cz-[Ln(Lig)], Lu^III ([1]; after 1 hour at 80° C. (A)): 19%
- conversion to 1,5-cz-[Ln(Lig)], Lu^III ([1]; after 18 hours at 80° C. (B)): 71%

SMILES: C#Cc1cccc(CN2CCN(CP(=O)(O)c3ccccc3)CCN(Cc3cccc(CN=[N+]=[N-])n3)CCN(CP(=O)(O)c3ccccc3)CC2)n1 [TD921]
- conversion to 1,5-cz-[M(Lig)], Sc^III ([2]; 1 week at 80° C.): 0%
- conversion to 1,5-cz-[M(Lig)], Y^III ([2]; 1 week at 80° C.): 14%
- conversion to 1,5-cz-[M(Lig)], Sc^III ([2]; 1 hour at 80° C.): 0%
- conversion to 1,5-cz-[M(Lig)], Y^III ([2]; 1 hour at 80° C.): 0%
- conversion to 1,5-cz-[M(Lig)], Ba^II ([3]; 1 week at 80° C.): 0%
- conversion to 1,5-cz-[M(Lig)], Sr^II ([3]; 1 week at 80° C.): 0%
- conversion to 1,5-cz-[M(Lig)], Ca^II ([3]; 1 week at 80° C.): 0%
- conversion to 1,5-cz-[M(Lig)], Cd^II ([3]; 1 week at 80° C.): 96%
- conversion to 1,5-cz-[M(Lig)], Ba^II ([3]; 1 hour at 80° C.): 0%
- conversion to 1,5-cz-[M(Lig)], Sr^II ([3]; 1 hour at 80° C.): 0%
- conversion to 1,5-cz-[M(Lig)], Ca^II ([3]; 1 hour at 80° C.): 0%
- conversion to 1,5-cz-[M(Lig)], Cd^II ([3]; 1 hour at 80° C., TD714 sum of two diastereoisomers): 92%
- conversion to 1,4-cz-Lig isomer, Cs^I ([4]; A: 1 hour at 80° C.): 2%
- conversion to 1,4-cz-Lig isomer, K^I ([4]; A: 1 hour at 80° C.): 2%
- conversion to 1,4-cz-Lig isomer, Li^I ([4]; A: 1 hour at 80° C.): 1%
- conversion to 1,4-cz-Lig isomer, Na^I ([4]; A: 1 hour at 80° C.): 2%
- conversion to 1,4-cz-Lig isomer, Rb^I ([4]; A: 1 hour at 80° C.): 2%
- conversion to 1,5-cz-Lig isomer, Cs^I ([4]; A: 1 hour at 80° C.): 2%
- conversion to 1,5-cz-Lig isomer, K^I ([4]; A: 1 hour at 80° C.): 2%
- conversion to 1,5-cz-Lig isomer, Li^I ([4]; A: 1 hour at 80° C.): 12%
- conversion to 1,5-cz-Lig isomer, Na^I ([4]; A: 1 hour at 80° C.): 30%
- conversion to 1,5-cz-Lig isomer, Rb^I ([4]; A: 1 hour at 80° C.): 2%
- conversion to 1,4-cz-Lig isomer, Cs^I ([4]; B: 1 day at 80° C.): 31%
- conversion to 1,4-cz-Lig isomer, K^I ([4]; B: 1 day at 80° C.): 31%
- conversion to 1,4-cz-Lig isomer, Na^I ([4]; B: 1 day at 80° C.): 4%
- conversion to 1,4-cz-Lig isomer, Rb^I ([4]; B: 1 day at 80° C.): 31%
- conversion to 1,5-cz-Lig isomer, Cs^I ([4]; B: 1 day at 80° C.): 21%
- conversion to 1,5-cz-Lig isomer, K^I ([4]; B: 1 day at 80° C.): 23%
- conversion to 1,5-cz-Lig isomer, Na^I ([4]; B: 1 day at 80° C.): 89%
- conversion to 1,5-cz-Lig isomer, Rb^I ([4]; B: 1 day at 80° C.): 21%
- conversion to 1,4-cz-Lig isomer, Li^I [4, 6]: 6%
- conversion to 1,5-cz-Lig isomer, Li^I [4, 6]: 86%
- conversion to 1,5-cz-[Ln(Lig)], Ce^III ([5]; after 1 week at 80° C.): 0%
- conversion to 1,5-cz-[Ln(Lig)], Ce^III ([5]; after 1 hour at 80° C.): 0%
- conversion to 1,5-cz-[Ln(Lig)], Dy^III ([5]; after 1 week at 80° C.): 37%
- conversion to 1,5-cz-[Ln(Lig)], Dy^III ([5]; after 1 hour at 80° C.): 1%
- conversion to 1,5-cz-[Ln(Lig)], Er^III ([5]; after 1 week at 80° C.): 26%
- conversion to 1,5-cz-[Ln(Lig)], Er^III ([5]; after 1 hour at 80° C.): 1%
- conversion to 1,5-cz-[Ln(Lig)], Eu^III ([5]; after 1 week at 80° C.): 31%
- conversion to 1,5-cz-[Ln(Lig)], Eu^III ([5]; after 1 hour at 80° C.): 1%
- conversion to 1,5-cz-[Ln(Lig)], Gd^III ([5]; after 1 week at 80° C.): 28%
- conversion to 1,5-cz-[Ln(Lig)], Gd^III ([5]; after 1 hour at 80° C.): 0%
- conversion to 1,5-cz-[Ln(Lig)], Ho^III ([5]; after 1 week at 80° C.): 31%
- conversion to 1,5-cz-[Ln(Lig)], Ho^III ([5]; after 1 hour at 80° C.): 1%
- conversion to 1,5-cz-[Ln(Lig)], La^III ([5]; after 1 week at 80° C.): 0%
- conversion to 1,5-cz-[Ln(Lig)], La^III ([5]; after 1 hour at 80° C.): 0%
- conversion to 1,5-cz-[Ln(Lig)], Lu^III ([5]; after 1 week at 80° C.): 10%
- conversion to 1,5-cz-[Ln(Lig)], Lu^III ([5]; after 1 hour at 80° C.): 1%
- conversion to 1,5-cz-[Ln(Lig)], Nd^III ([5]; after 1 week at 80° C.): 43%
- conversion to 1,5-cz-[Ln(Lig)], Nd^III ([5]; after 1 hour at 80° C.): 4%
- conversion to 1,5-cz-[Ln(Lig)], Pr^III ([5]; after 1 week at 80° C.): 55%
- conversion to 1,5-cz-[Ln(Lig)], Pr^III ([5]; after 1 hour at 80° C.): 5%
- conversion to 1,5-cz-[Ln(Lig)], Sm^III ([5]; after 1 week at 80° C.): 42%
- conversion to 1,5-cz-[Ln(Lig)], Sm^III ([5]; after 1 hour at 80° C.): 1%
- conversion to 1,5-cz-[Ln(Lig)], Tb^III ([5]; after 1 week at 80° C.): 41%
- conversion to 1,5-cz-[Ln(Lig)], Tb^III ([5]; after 1 hour at 80° C.): 1%
- conversion to 1,5-cz-[Ln(Lig)], Tm^III ([5]; after 1 week at 80° C.): 18%
- conversion to 1,5-cz-[Ln(Lig)], Tm^III ([5]; after 1 hour at 80° C.): 1%
- conversion to 1,5-cz-[Ln(Lig)], Yb^III ([5]; after 1 week at 80° C.): 15%
- conversion to 1,5-cz-[Ln(Lig)], Yb^III ([5]; after 1 hour at 80° C.): 1%
